The values that follow come from patent US7001888B2, “Compositions and methods for treating cancer” (Threshold Pharmaceuticals, Inc., priority 2002, dated 2006).

“And” between values parts separate entries of the source, which are not always exact repeats. Equal values may be shown once.

For the experiment, the system named is HepG2 cells. The experiment in a line: Uptake of compounds by HepG2 cells. It is filed as cell-based, human. Conditions: for Uptake: 100 μM compound, 1 hour at 37° C., per mg protein, iodo conjugates by ICP-MS iodide content, 14C controls by scintillation counting; for Effect of D-glucose on uptake: D-glucose (10 mM) present; for Effect of L-glucose on uptake: L-glucose (10 mM) present; for Relative uptake among the compounds of the invention tested: comparison of Table 1 values. As for the experimental part: This example describes assays conducted to determine to what extent certain iodo-containing conjugates of the invention are taken up or transported into cancer cells. As a positive control, the uptake of ^14C-labeled-2-deoxy-D-glucose, a compound transported into human cells via glucose transporters and phosphorylated by hexokinase, and thus retained in the cell, was measured. As a negative control, the uptake of ^14C-labeled-3-O-methyl-glucose, which is transported into the cell via the glucose transporters but is not phosphorylated and so is not retained, was measured.
The control assay was conducted as follows. HepG2 cells were plated at a density of 2×10^5 cells per well into a 24 well plate, and the plates were maintained in 37° C. incubator (5% CO2) for 2 days. Prior to the uptake assay, the HepG2 cells were rinsed twice with pre-warmed (37° C.) phosphate-buffered saline (PBS) containing 1 mM CaCl2, 1 mM MgCl2 and 0.3% BSA. The rinsed HepG2 cells were then incubated with 270 μl of buffer (PBS/Ca/Mg/BSA) in the absence or presence of D-glucose (10 mM), L-glucose (10 mM), cytochalasin B (10 μM) or phloretin (0.3 mM) for 10 min at 37° C. Then, 30 μl of ^14C-2DG (final concentration: 100 μM, 0.1 μCi) were added to each well, and the cells were incubated for 1 hour at 37° C. The plate was placed on ice, and the cells were washed rapidly three times with cold PBS buffer (4° C.) containing 1 mM CaCl2 and MgCl2. The cells were then lysed with 150 μl of 1% Triton X-100, and the lysate was transferred to a scintillation vial. The well was rinsed with 200 μl ddH2O, and the rinsate was transferred to the same vial. Radioactivity was quantified using a scintillation counter. The protein concentration of each sample was determined using a BCA kit (Sigma, St Louis, Mo.). The amount of uptake of ^14C-2DG is reported below in units of nmole/mg protein/60 min.
To measure uptake of the iodo-containing compounds of the invention, HepG2 cells were plated at a density of 2×10^5 cells per well into a 24 well plate, and the plates were maintained in 37° C. incubator (5% CO2) for 2 days. Prior to the uptake assay, the HepG2 cells were rinsed twice with pre-warmed (37° C.) phosphate-buffered saline (PBS) containing 1 mM CaCl2, 1 mM MgCl2 and 0.3% BSA. The HepG2 cells were then incubated with 270 μl of buffer (PBS/Ca/Mg/BSA) in the absence or presence of D-glucose (10 mM), L-glucose (10 mM), cytochalasin B (10 μM) or phloretin (0.3 mM) for 10 min at 37° C. Then, 30 μl of each of the conjugates (final concentration: 100 μM) were added to individual test wells, and the plates were incubated for 1 hour at 37° C. The plate was placed on ice, and then, the cells were washed rapidly three times with cold PBS buffer (4° C.) containing 1 mM CaCl2 and MgCl2. The cells were lysed by the sequential addition of 150 μl of 1% Triton X-100 and 100 μl of ddH2O into each well. Lysates from six replicate wells were pooled together for each sample (volume per sample: 1.5 ml). The protein concentration of each sample was determined using a BCA kit (Sigma, St Louis, Mo.). Samples were diluted by addition of 4 ml of ddH2O (final volume per sample: 5.5 ml), and the samples treated with the iodo-containing conjugates were analyzed for iodide content by inductively coupled plasma-mass spectrometry (West Coast Analytical Service, Santa Fe Spring, Calif.). The amount of uptake of iodide-containing glucose conjugate is reported as nmole/mg protein/60 min.

Consider 4-iodobenzyl glucosamine [TP012], for which the Uptake was 2.8 +/− 0.14 (n = 4) nmole/mg/60 min, the “Effect of D-glucose on uptake” value is reported as “not blocked”, the “Effect of L-glucose on uptake” value was “not blocked” and the “Relative uptake among the compounds of the invention tested” value was “most taken up by the cells”. In the case of 4-iodohippuroyl glucosamine [TP011], the Uptake was determined as 0.5 nmole/mg/60 min, the “Effect of D-glucose on uptake” value is reported as “blocked” and the “Effect of L-glucose on uptake” value is on record as “not L-glucose”. For `OC[C@H]1OC(O)[C@H](N(C/C=C/I)C/C=C/I)[C@@H](O)[C@@H]1O` (stereo partly shown) [TP019, bis-E-3-iodopropen-2-yl glucosamine], the Uptake is 1.39 nmole/mg/60 min and 1.00 nmole/mg/60 min. For `CO[C@@H]([C@H](O)[C@H](O)CO)[C@@H](O)C=O` [3-O-Methyl Glucose, 3-O-methyl-glucose, reference compound], the Uptake was found to be 0.2 nmole/mg/60 min. With “4-(iodophenyl)thiocarbamoyl glucosamine [TP022]”, the Uptake was 0.90 nmole/mg/60 min and 0.97 nmole/mg/60 min. With `O=S(=O)(N[C@H]1C(O)O[C@H](CO)[C@@H](O)[C@@H]1O)c1ccc(I)cc1` (stereo partly shown) [TP020, Pipsyl glucosamine], the Uptake was 0.83 nmole/mg/60 min and 0.81 nmole/mg/60 min. On to `O=C(COCCOCCOCCOCCOCc1ccc(I)cc1)NC1C(O)O[C@H](CO)[C@@H](O)[C@@H]1O` (stereo partly shown) [TP017], for which the Uptake was 0.16 nmole/mg/60 min and 0.18 nmole/mg/60 min. `OC[C@H]1OC(O)[C@H](N(C/C=C\I)C/C=C\I)[C@@H](O)[C@@H]1O` (stereo partly shown) [TP018, bis-Z-3-iodopropen-2-yl glucosamine]: the Uptake is 2.28 nmole/mg/60 min and 2.31 nmole/mg/60 min; the “Relative uptake among the compounds of the invention tested” value is “most taken up by the cells”.

`O=C(NCCN[C@H]1C(O)O[C@H](CO)[C@@H](O)[C@@H]1O)c1ccc(I)cc1` (stereo partly shown) [TP014] displayed an Uptake of 1.2 nmole/mg/60 min.

As to `O=CC[C@@H](O)[C@H](O)[C@H](O)CO` [Compound 2-DG, 2-deoxy-D-glucose, reference compound], the Uptake is 51.8 +/− 4.3 (n = 3) nmole/mg/60 min.
